# Test results as given in patent US20050153923A1, “Targeted drug delivery using EphA2 or EphA4 binding moieties” (priority 2003, published 2005).
# “Also recorded” adds a separate entry of the source.
# Key:
# EphA2 = EphA2 expression in MDA-MB-231 cells after antisense transfection (Western blot); format: cell-based; conditions: 2 μg/ml oligonucleotide, 24 hours
# MCF-7^EphA2 cells [1] = experiment: Soft agar colonization of MCF-7^EphA2 cells; format: cell-based; conditions: TAM 1 μM, EA2 10 μg/ml
# Procedure: (B) MCF-7 (circles) or MCF-7^EphA2 cells (squares) were implanted into the mammary fatpad (n=15 mice per group) in the presence of supplemental estrogen.
# MCF-7^EPhA2 cells were incubated in the presence of 3 μg/ml of EA2 for the time indicated prior to sample extraction and Western blot analyses with an EphA2-specific antibody (D7). (B) The membrane was stripped and re-probed with a β-catenin-specific antibody as a loading control.
# (§1) Growth assays were conducted as follows. MCF-7^neo (control cells) or MCF7^EphA2 cells were seeded in 96-well plates. […] Colony formation in soft agar was performed as previously described (Zelinski et al., 2001, Cancer Res. 61: 2301-6) and scored microscopically, defining clusters of at least three cells as a positive. The data represent the average of ten separate high-power microscopic fields from each sample and representative of at least three separate experiments. Error bars represent the standard error of the mean of at least three different experiments as determined using Microsoft Excel software.
# Growth MCF-7^EphA2 cells which had decreased EphA2 expression levels was assayed in soft agar.
# control MCF-7 cells = experiment: Soft agar colonization of control MCF-7 cells; format: cell-based; conditions: TAM 1 μM; EA2 10 μg/ml; FIG. 13C
# Procedure: as §1, with “software. […]” for “software.”
# MCF-7^EphA2 cells [2] = experiment: Tumorigenic potential of MCF-7^EphA2 vs control cells in mammary fat pad of athymic mice under tamoxifen; format: in vivo; conditions: tamoxifen 1 mg oral gavage 6 days per week, from 17 days post-implantation; supplemental estrogen; FIG. 11B
# Procedure: (B) MCF-7 (circles) or MCF-7^EphA2 cells (squares) were implanted into the mammary fatpad (n=15 mice per group) in the presence of supplemental estrogen. […] Tumor volume of tamoxifen treated (black circles and squares) and saline treated (white circles and squares) animals was measured at the indicated time.
# Consistent with increased soft agar colonization, orthotopically implanted MCF-7^EphA2 cells formed larger, more rapidly growing tumors in vivo. Six to eight week-old athymic (nu/nu) mice were purchased from Harlan Sprague Dawley (Indianapolis, Ind.). When indicated, a controlled release estradiol pellet (0.72 mg 17β-estradiol, 60-day formulation) was injected subcutaneously via a sterile 14-gauge trocar 24 hours prior to tumor implantation and pellets were replaced every 60 days for those experiments spanning>60 days in duration. 1×10^6 MCF-7^neo or MCF7^EphA2 cells were injected into the mammary fat pad under direct visualization.
# MDA-MB-231 cells = experiment: Soft agar colonization of MDA-MB-231 cells after antisense transfection; format: cell-based
# Procedure: Monolayers of MDA-MB-231 cells were transfected with 2 μg/ml of EphA2 antisense or inverse antisense (IAS) oligonucleotides at 37° C. for 24 hours. […] The membranes were stripped and reprobed with paxillin antibodies as a loading control (B). The relative mobility of molecular mass standards is shown on the left of panels A and B. (C) MDA-MB-231 cell monolayers, treated with antisense oligonucleotides as detailed above, were suspended in soft agar for 7 days before microscopic analysis of colony formation. […] Results are reported as colonies per high-powered field (HPF).
# An antisense oligonucleotide-based approach that decreased EphA2 expression in tumor cells independent of EphA2 activation was developed. […] Inverted antisense oligonucleotides (5′-[…]-3′; SEQ ID NO:109) provided a control. The cells were transfected with oligonucleotides (2 μg/ml) using Lipofectamine PLUS Reagent (Life Technologies, Inc.) according to the manufacturer's protocol. Twenty-four hours post-transfection, the cells were divided. Half of the cells were seeded into soft agar, and the remaining cells were extracted and subjected to Western blot analysis.
# MDA-MB-231 cells were suspended in soft agar. […] Colony formation was scored microscopically using an Olympus CK-3 inverted phase-contrast microscope outfitted with a 40× objective. Clusters containing at least three cells were scored as a positive. […]
compound,measurement,setting,value
"5′-GCCGCGTCCCGTTCCTTCACCATGACGACC-3′ (listed as DNA, chemistry not given here; listed as Homo sapiens) [IAS, inverted antisense control oligonucleotide, reference compound]",EphA2 expression / protein level after oligonucleotide transfection,EphA2,did not
"C[C@]12CC[C@@H]3c4ccc(O)cc4CC[C@H]3[C@@H]1CC[C@@H]2O [estradiol, 17β-estradiol, reference compound]","Soft agar colonization response / tamoxifen sensitivity, MCF-7^EphA2 cells","MCF-7^EphA2 cells [1]; 1 μM 17β-estradiol, FIGS. 11A, 13C (11A also MCF-7)",overcame the inhibitory effects of tamoxifen
tamoxifen [reference compound],"Soft agar colonization response, control MCF-7 cells",control MCF-7 cells,sensitive to tamoxifen
same,"Inhibition / decrease of soft agar colonization, MCF-7^EphA2 cells",MCF-7^EphA2 cells [1]; 14 days,25%
same,"Sensitivity of tumorigenic potential to tamoxifen, MCF-7^EphA2 vs control (MCF-7^neo)",MCF-7^EphA2 cells [2],less sensitive to tamoxifen; also recorded: lower inhibitory effects of tamoxifen on MCF-7^EphA2 relative to control cells
"5′-CCAGCAGTACCGCTTCCTTGCCCTGCGGCCG-3′ (all phosphorothioate, sugars by position and methylation of C not given here; listed as Homo Sapiens) [EphA2 antisense oligonucleotides, phosphorothioate-modified antisense oligonucleotides unique to EphA2]",Decrease of soft agar colonization vs matched controls,"MDA-MB-231 cells; 2 μg/ml oligonucleotide, 7 days in soft agar, FIG. 14C",at least 60%
same,Colony formation in soft agar vs inverted antisense control,MDA-MB-231 cells; P<0.002,significantly impaired
same,EphA2 expression / protein level after oligonucleotide transfection,EphA2,selectively decreased EphA2 expression in MDA-MB-231 cells; also recorded: decreases EphA2 protein levels
